Results published in patent US20090149469A1, “Phenyl-[4-(3-phenyl-1h-pyrazol-4-yl)-pyrimidin-2-yl]-amine derivatives as igf-ir inhibitors” (priority 2004, published 2009).

Biological target: T1, human IGF-IR (Homo sapiens, UniProt P08069)
T1 construct: complete human IGF-IR cDNA: GenBank Acc; No. NM_000875; expressed in transfected cells; host or cells: NIH-3T3 mouse fibroblasts
Assay: cellular Capture ELISA: IGF-I induced autophosphorylation of IGF-IR in NIH-3T3 cells transfected with human IGF-IR
Format: cell-based
Conditions: by the methods described above
Description: In this assay the activity of the compounds of the invention against Insulin-like growth factor I (IGF-1) induced autophosphorylation of the IGF-IR is determined. The assay is conducted as follows: For the assay NIH-3T3 mouse fibroblasts transfected with human IGF-IR cDNA (complete human IGF-IR cDNA: GenBank Acc. No. NM_000875), prepared as described in Kato et al., J. Biol. Chem. 268, 2655-61, 1993, are used. The cells which overexpress human IGF-IR are cultured in Dulbecco's minimal essential (DMEM) medium, containing 10% Fetal Calf Serum (FCS). For the assay 5,000 cells/well are plated on day 1 on 96-well plates (Costar #3595) in normal growth medium and incubated for 2 days at 37° C. in a standard CO2 cell incubator. […] On day 3 the medium is discarded and the cells are incubated for 24 h in minimal medium (DMEM, containing 0.5% FCS). […]
90 μl/well AP substrate (CDP-Star; obtained from Tropix; Cat. No.: MS100RY) are then added and the plates are incubated for 45 min at RT in the dark, followed by measuring AP activity in a Packard Top Count Microplate Scintillation Counter. The IC50 values for the compounds of formula I are calculated via linear regression analysis using the GraphPad Instat program (GraphPad Software, USA). […]

T1 sequence (P08069 31-1367): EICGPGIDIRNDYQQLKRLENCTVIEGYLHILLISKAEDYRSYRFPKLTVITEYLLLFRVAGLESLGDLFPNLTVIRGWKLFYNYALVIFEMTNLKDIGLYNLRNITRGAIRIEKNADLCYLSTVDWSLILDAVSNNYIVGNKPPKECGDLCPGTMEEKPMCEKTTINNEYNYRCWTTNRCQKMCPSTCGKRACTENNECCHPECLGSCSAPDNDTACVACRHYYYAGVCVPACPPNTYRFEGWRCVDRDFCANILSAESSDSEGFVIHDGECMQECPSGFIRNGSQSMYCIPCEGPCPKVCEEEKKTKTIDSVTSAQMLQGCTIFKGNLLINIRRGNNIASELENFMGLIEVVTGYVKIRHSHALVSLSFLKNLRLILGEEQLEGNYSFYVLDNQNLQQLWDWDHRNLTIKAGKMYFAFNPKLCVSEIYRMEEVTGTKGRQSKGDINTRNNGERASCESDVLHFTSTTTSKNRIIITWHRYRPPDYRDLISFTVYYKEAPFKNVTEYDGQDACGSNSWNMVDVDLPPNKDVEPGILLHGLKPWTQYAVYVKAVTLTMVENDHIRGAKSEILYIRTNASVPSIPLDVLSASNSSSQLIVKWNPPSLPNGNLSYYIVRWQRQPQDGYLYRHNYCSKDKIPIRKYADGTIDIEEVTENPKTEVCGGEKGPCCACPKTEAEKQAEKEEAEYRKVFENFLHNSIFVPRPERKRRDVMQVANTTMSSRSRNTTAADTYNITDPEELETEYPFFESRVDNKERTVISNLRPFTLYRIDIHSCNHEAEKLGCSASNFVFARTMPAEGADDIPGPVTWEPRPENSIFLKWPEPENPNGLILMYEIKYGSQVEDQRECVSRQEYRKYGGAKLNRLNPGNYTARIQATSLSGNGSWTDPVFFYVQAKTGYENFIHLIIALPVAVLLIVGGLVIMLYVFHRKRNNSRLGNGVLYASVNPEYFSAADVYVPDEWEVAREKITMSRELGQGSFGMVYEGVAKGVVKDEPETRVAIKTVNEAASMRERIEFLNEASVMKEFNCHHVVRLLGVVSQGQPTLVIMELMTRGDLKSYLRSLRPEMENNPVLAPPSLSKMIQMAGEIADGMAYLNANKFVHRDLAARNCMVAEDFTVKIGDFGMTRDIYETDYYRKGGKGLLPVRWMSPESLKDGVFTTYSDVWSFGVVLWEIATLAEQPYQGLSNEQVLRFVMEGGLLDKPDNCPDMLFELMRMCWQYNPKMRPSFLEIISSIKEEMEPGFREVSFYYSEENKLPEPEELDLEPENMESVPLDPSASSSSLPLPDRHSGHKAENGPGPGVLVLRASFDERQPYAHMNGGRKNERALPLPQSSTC

Q: With `CN(C)CCOc1ccc(Nc2nccc(-c3c[nH]nc3-c3ccc(OCc4ccccc4)cc3)n2)cc1` [Example 6, {4-[3-(4-Benzyloxy-phenyl)-1H-pyrazol-4-yl]-pyrimidin-2-yl}-[4-(2-dimethylamino-ethoxy)-phenyl]-amine] as the compound, how does the “inhibition of IGF-1R (in words)” value read?
A: The value was “shows inhibition”.
